# Measurements from patent publication US8007994B2, “Compositions and methods of modulating cholesterol metabolism” (The Board of Regents of the University of Texas System, priority 1998, dated 2011).
# Entries after “also recorded” stand apart in the source; their conditions may differ. Like-named read-outs stand apart in the source and are kept apart here.
# Tests used:
# [1] = test system: ATP-binding cassette protein-1 (ABC-1); assay: Northern analysis of intestinal ABC-1 expression; format: in vivo; settings: mouse small intestine, oral 30 mg/kg body weight, as little as 6 hours
# Procedure: The ATP-binding cassette protein-1 is a newly described membrane protein implicated in reverse cholesterol transport, in other words the efflux of cholesterol from peripheral tissues to the liver (Young and Fielding, 1999; Tall, 1998).
# Male A129 strain mice were fed Teklad 7001 powdered diet supplemented with 0.2% cholesterol and 0.015% LG268, equimolar LG721 (see example 12) or vehicle at 7 pm (beginning of dark cycle). Animals were sacrificed at 1 am (6 hour time point) or 7 am (12 hr), the intestine was removed and rinsed with ice-cold phosphate buffered saline, then subdivided into 5 segments of equal length (˜8 cm each, FIG. 10A) or 3 segments (the proximal segment representing the duodenumis depicted in FIG. 10B). Intestinal mucosa was obtained from each segment and poly (A+) RNA isolated for northern analyses. Results were quantified using a phosphorimager, standardized against b-actin controls, and mathematically adjusted to yield 1 unit for the vehicle-treated control group.
# RXR = settings: cited from earlier work
# ACAT-1 mRNA = assay: Northern analysis of duodenal intestine samples, ACAT-1; format: in vivo, mouse; settings: duodenum of treated mice, 10 days
# Text: (§1) It is known that exogenous cholesterol is taken up in the distal duodenum (and perhaps proximal jejunum) by the intestinal enterocyte, is rapidly esterified (by ACAT) and packaged into chylomicrons for transport into the lymphatic system (reviewed by Homan and Krause, 1997). Recently, caveolin has also been proposed to play a role in cholesterol trafficking in the intestine (Field et al., 1998). Disruption of any of these processes could result in diminished cholesterol absorption capacity. As LG268 is an agonist of the nuclear hormone receptor RXR, it is likely that the primary targets of this drug would be transcriptionally regulated and show a change in the steady state level of mRNA for critical target genes. Northern analyses were performed on duodenal intestine samples obtained in the experiment described in FIG. 4. Results were quantitated using a phosphoimager (Molecular Dynamics), standardized against b-actin controls, and mathematically adjusted to yield 1 unit for the vehicle-treated control group.
# cholesterol biosynthesis = assay: Rates of sterol synthesis in vivo ([3H]water incorporation); parameters: species or system mouse; settings: mice, 0.2% cholesterol diet, 7 days
# Procedure: Male, A129 mice were fed Teklad 7001 diet supplemented with 0.2% cholesterol and vehicle or LG268 (at 3 or 30 mg/kg body weight) for 7 days ad libitum. Rates of sterol synthesis were measured in vivo as described (Jeske and Dietschy, 1980, Turley et al., 1981) based on the incorporation of [^3H]water into digitonin-precipitable sterols over one hour.
# liver cholesterol [2] = assay: Liver cholesterol in cholesterol-fed Golden Syrian hamsters; format: in vivo, Golden Syrian hamster; settings: male hamsters, 0.2% cholesterol diet, 3 or 30 mg/kg body weight, 12 days
# Procedure: (§2) Hamsters provide a better animal model for cholesterol metabolism than mice (however, mice offer the advantage that they can be genetically manipulated, for example the LXRα−/− strain). […] Male Syrian Golden hamsters were fed Teklad 7001 diet supplemented with 0.2% cholesterol and vehicle, LG268 (providing 3 or 30 mg/kg body weight) or 2% surfomer. On day 7, they received a gavage dose of [22,23-3H]b-sitostanol (American Radiolabeled Chemicals, St. Louis, Mo.) and [4-14C]cholesterol (Amersham) for the measurement of cholesterol absorption by the fecal isotope ratio method (Turley et al., 1994). Stools were collected from the individually housed hamsters over the next 72 hours. On day 12 the animals were sacrificed and liver was removed for cholesterol determination by gas chromatography (Turley et al., 1994). […] Therefore the effects of LG268 on cholesterol homeostasis are not limited to mice, but observed in other mammalian species as well.
# cholesterol absorption [3] = assay: Cholesterol absorption by the fecal isotope ratio method in mice; format: in vivo, mouse
# Procedure: Male, A129 strain mice (LXRα+/+ and −/−) were fed Teklad 7001 powdered diet supplemented with 0.2% cholesterol 0.015% LG268 (provides 30 mg/kg body weight), vehicle, or 2% surfomer ad libitum for 10 days. On day 7, mice received a gavage dose of [22,23-3H]b-sitostanol (American Radiolabeled Chemicals, St. Louis, Mo.) and [4-14C]cholesterol (Amersham) for the measurement of cholesterol absorption by the fecal isotope ratio method (Turley et al., 1994). […] In light of the extreme potency of LG268, a dose-response analysis was performed.
# (§3) Male, A129 strain mice were fed Teklad 7001 powdered diet supplemented with 0.2% cholesterol and various levels of LG268 (providing 1.4 to 30 mg/kg body weight) or vehicle ad libitum for 10 days. On day 7, mice received a gavage dose of [22,23-3H]b-sitostanol (American Radiolabeled Chemicals, St. Louis, Mo.) and [4-14C]cholesterol (Amersham) for the measurement of cholesterol absorption by the fecal isotope ratio method (Turley et al., 1994). Liver cholesterol concentration was determined as by gas chromatography.
# as §3, with “cholesterol” for “cholesterol and various levels of”, “or LG721 (to provide 3” for “(providing 1.4 to 30”, “weight)” for “weight) or vehicle”
# total lipid absorption = assay: Total lipid absorption determined gravimetrically in mice; format: in vivo, mouse
# Procedure: Total lipid absorption was determined in the study described above (FIG. 4) to establish whether LG268 effects were specific to cholesterol or were affecting lipid absorption or intestinal integrity. Total lipid absorption was determined gravimetrically (Schwartz et al., 1998) by establishing lipid intake (amount of food consumed over 72 hours×dietary lipid content) and lipid output (fecal lipid content×quantity of stool collected over the same 72 hours) to calculate the fraction of lipid consumed that was absorbed. […] The gravimetric determination of lipid absorption shown in FIG. 5 confirmed these findings. The reduction in lipid absorption seen in these animals can be accounted for by the reduction in cholesterol uptake (cholesterol comprises ˜5% of the lipid in these diets and is extracted and measured as lipid in these analyses). Therefore, the effects of LG268 are specific for cholesterol absorption.
# caveolin mRNA = assay: Northern analysis of duodenal intestine samples, caveolin; format: in vivo, mouse; settings: duodenum of treated mice, 10 days
# Text: as §1
# liver cholesterol [4] = assay: Liver cholesterol accumulation in cholesterol-fed LXRα wild-type and knockout mice; format: in vivo, mouse; settings: 0.2% cholesterol diet, 30 mg/kg body weight in diet, 10 days
# Procedure: Male, A129 strain mice (LXRα+/+ and −/−) were fed Teklad 7001 powdered diet supplemented with 0.2% cholesterol 0.015% LG268 (provides 30 mg/kg body weight), vehicle, or 2% surfomer (a surfactant polymer that inhibits cholesterol absorption, Turley et al., 1991) ad libitum for 10 days. Animals were sacrificed and a liver aliquot was saponified and extracted and the cholesterol content was determined by gas chromatography using stigmastanol as an internal standard (Turley et al., 1994). Liver cholesterol accumulation was prevented by ingestion of LG268 in both LXRα knockout and wild-type mice. The two most likely mechanisms for this effect are (1) increased cholesterol output by enhanced bile acid production and secretion and/or (2) decreased cholesterol input by diminished cholesterol absorption.
# Male, A129 strain mice were fed Teklad 7001 powdered diet supplemented with 0.2% cholesterol and various levels of LG268 (providing 1.4 to 30 mg/kg body weight) or vehicle ad libitum for 10 days. […] Liver cholesterol concentration was determined as by gas chromatography.
# Male, A129 strain mice were fed Teklad 7001 powdered diet supplemented with 0.2% cholesterol LG268 or LG721 (to provide 3 mg/kg body weight) ad libitum for 10 days. […] Liver cholesterol concentration was determined as by gas chromatography.
# bile acid production = assay: Bile acid pool size and fecal bile acid excretion in cholesterol-fed mice; format: in vivo, mouse; settings: LXRα +/+ and −/− mice, 2% cholesterol diet, 30 mg/kg oral gavage daily, 7 days
# Procedure: Female, mixed strain (LXRα+/+ and −/−) mice were fed Teklad 7001 2% cholesterol (w/w) diet ad libitum for 7 days. Each day mice received a single bolus dose of LG268 ([…] to provide 30 mg/kg body weight) or vehicle by oral gavage. Mice were killed and liver cholesterol was determined as described in FIG. 1. Small intestine (with luminal contents) and gall bladder were extracted together to determine bile acid pool size and composition as described by Schwartz et al., 1998. Stools were collected over 3 days from the individually housed mice, dried, weighed and ground. Fecal bile acid content was determined by an enzymatic method (Turley et al., 1996).
# ACAT-2 mRNA = assay: Northern analysis of duodenal intestine samples, ACAT-2; format: in vivo, mouse; settings: duodenum of treated mice, 10 days
# Text: as §1
# cholesterol absorption [5] = assay: Cholesterol absorption by the fecal isotope ratio method in hamsters; format: in vivo, Golden Syrian hamster; settings: male hamsters, 0.2% cholesterol diet, 3 or 30 mg/kg body weight
# Procedure: as §2
compound,measurement,setting,value
Cc1cc2c(cc1C1(c3ccc(C(=O)O)cn3)CC1)C(C)(C)CCC2(C)C [LG268],ABC-1 expression,[1],greatly increased
same,RXR binding and activation,RXR,binds and activates RXR
same,RXR binding and activation,RXR; listed as LG100268,binds and activates all RXR subtypes
same,binding to other related nuclear receptors,RXR; selectivity,fails to exhibit binding
same,ACAT-1 mRNA level,ACAT-1 mRNA,No apparent change
same,cholesterol biosynthesis,cholesterol biosynthesis; 3 or 30 mg/kg body weight,increased cholesterol biosynthesis
same,"sterol synthesis in spleen, kidney and carcass","cholesterol biosynthesis; 3 or 30 mg/kg, dose-dependent",Increased synthesis
same,liver cholesterol,liver cholesterol [2],effective in hamsters in reducing liver cholesterol
same,cholesterol absorption,"cholesterol absorption [3]; LXRα +/+ and −/− mice, 0.2% cholesterol diet, 30 mg/kg body weight, 10 days, 30 mg/kg",completely inhibited; also recorded: total block in cholesterol absorption
same,inhibition of cholesterol absorption compared with 2% surfomer,"cholesterol absorption [3]; mice, LG268 0.015% of diet, dose 130-fold lower than surfomer",more effective than surfomer
same,lowest effective dose preventing liver cholesterol accumulation by inhibiting cholesterol absorption,"cholesterol absorption [3]; wild-type mice, 0.2% cholesterol diet, doses 1.4 to 30 mg/kg, 10 days",1.4 mg/kg body weight
same,stool output,total lipid absorption; wild-type mice receiving LG268 in diet,normal
same,general lipid absorption,"total lipid absorption; wild-type mice, 0.2% cholesterol diet, LG268 in diet, 10 days",not experiencing general lipid malabsorption or steattorhea; also recorded: unaffected
same,caveolin mRNA level,caveolin mRNA,No apparent change
same,liver cholesterol accumulation,liver cholesterol [4],prevented
same,liver cholesterol accumulation prevented via bile acid production (bile acid pool size and excretion),bile acid production,did not prevent the liver accumulation by increasing bile acid production
same,ACAT-2 mRNA level,ACAT-2 mRNA,No apparent change
same,cholesterol absorption,cholesterol absorption [5],inhibiting cholesterol absorption
